Blank lines part the entries; values can stand above or below the compound they belong to. Calls of active or inactive are those of the source. The calls are words filed in the database; no cut-off is given here.
Assays:
Saccharomyces cerevisiae [1] = assay: Competitive inhibition of Saccharomyces cerevisiae alpha-glucosidase incubated for 30 mins before pNPG substrate addition and measured after 10 mins by spectrophotometry based Michaelis-Menten equation and Lineweaver-Burk plot analysis
Saccharomyces cerevisiae [2] = assay: Inhibition of Saccharomyces cerevisiae alpha-glucosidase at 669.57 uM incubated for 30 mins before pNPG substrate addition and measured after 10 mins by spectrophotometry relative to untreated control
Alpha glucosidase = Alpha glucosidase (Homo sapiens, UniProt O43451+P10253+P14410+Q2M2H8); assay: Inhibition of alpha-glucosidase (unknown origin) incubated for 20 mins before pNPG substrate addition and measured after 30 mins by UV spectrometry; assay type: protein assay
Saccharomyces cerevisiae [3] = assay: Inhibition of Saccharomyces cerevisiae alpha-glucosidase at 3.54 uM incubated for 30 mins before pNPG substrate addition and measured after 10 mins by spectrophotometry relative to untreated control
Saccharomyces cerevisiae [4] = assay: Non-competitive inhibition of Saccharomyces cerevisiae alpha-glucosidase assessed as substrate Vmax incubated for 15 mins before pNPG substrate addition and measured for 180 secs by spectrophotometry based Michaelis-Menten equation and Lineweaver-Burk plot analysis
Saccharomyces cerevisiae [5] = assay: Inhibition of Saccharomyces cerevisiae alpha-glucosidase at 27.62 uM incubated for 30 mins before pNPG substrate addition and measured after 10 mins by spectrophotometry relative to untreated control
Saccharomyces cerevisiae [6] = assay: Non-competitive inhibition of Saccharomyces cerevisiae alpha-glucosidase assessed as substrate Km incubated for 15 mins before pNPG substrate addition and measured for 180 secs by spectrophotometry based Michaelis-Menten equation and Lineweaver-Burk plot analysis
Saccharomyces cerevisiae [7] = assay: Inhibition of Saccharomyces cerevisiae alpha-glucosidase incubated for 30 mins before pNPG substrate addition and measured after 10 mins by spectrophotometry

inhibition (Saccharomyces cerevisiae [1]): Active
inhibition (Saccharomyces cerevisiae [2]): 97.7%
Compound: C[C@H]1O[C@H](O[C@H]2[C@H](O)[C@@H](O)[C@@H](O[C@H]3[C@H](O)[C@@H](O)C(O)O[C@@H]3CO)O[C@@H]2CO)[C@H](O)[C@@H](O)[C@@H]1N[C@H]1C=C(CO)[C@@H](O)[C@H](O)[C@H]1O (some centres undefined)

IC50 (Alpha glucosidase): 52 µM
Compound: Cc1cc(=O)oc2c(O)c(O)ccc12 [4-METHYLDAPHNETIN]

IC50 (Alpha glucosidase): 23.07 µM
Compound: H-RVPSLM-OH

inhibition (Saccharomyces cerevisiae [3]): 8.4%
Vmax (Saccharomyces cerevisiae [4]): 0.028 µmol/min
inhibition (Saccharomyces cerevisiae [5]): 99.3%
Km (Saccharomyces cerevisiae [6]): 71.4 µM⁻¹
inhibition (Saccharomyces cerevisiae [7]): Dose-dependent effect
Compound: O=c1cc(-c2ccc3c(c2)OCO3)oc2ccccc12
